We go through one molecule from paper PMC4640066 (Nature Communications, 2015).

One test addresses T1, human γ-tubulin (Homo sapiens, UniProt P23258).
T1 construct: myc (C); 6His (C); made in house; host or cells: Sf21 insect cells (baculovirus)
As to the kind of experiment: Inhibition of GTP binding of γ-tubulin (α-[32P]-GTP crosslinking assay). The settings on record: 60 μM compound; 70 nM γ-tubulin, 100 nM α-[32P]-GTP; mean±s.d. On the procedure: For analysis of the effect of drugs on GTP binding of γ-tubulin, 70 nM of purified human γ-tubulin in GTP-binding buffer (50 mM MES, 5 mM MgCl2, 1 mM EGTA, pH 6.6) was incubated with or without compounds for 15 min at 20 °C. A final concentration of 100 nM of α-[^32P]-GTP was added and incubated at 20 °C for 30 min. After incubation, bound α-[^32P]-GTP was crosslinked to γ-tubulin for 60 s by illumination with a ultraviolet lamp using CL-1000 Ultraviolet Crosslinker. Protein with the crosslinked GTP was separated from unbound nucleotide by TCA precipitation and SDS–PAGE, and ^32P labelling was measured using a Typhoon FLA-7000 (General Electronic Company). Band intensities were quantified with the ImageJ software.

For test [1], the system named is HeLa cells expressing EB3-EGFP (interphase). As to the kind of experiment: EB3-EGFP signal tracking, interphase cells. It counts as cell-based, human. To be noted: 15 min; for Track length / Track lifetime / Velocity: interphase HeLa EB3-EGFP, mean±s.d.; for Track numbers: interphase, from a 144-μm^2 area inside the cell. On the procedure:
(§1) A HeLa ‘Kyoto' cell line stably expressing EB3-EGFP (a kind gift from Dr J. Ellenberg) was maintained in DMEM+GlutaMAX (Gibco) supplemented with 10% FBS, 2 mM L-glutamine, 100 U ml^−1 penicillin, 100 μg ml^−1 streptomycin, 1 mM sodium pyruvate and 0.5 mg ml^−1 G418. Cells were seeded into eight-well Lab-Tek chambers (Nunc, Rochester, NY) for 24-h prior imaging. For imaging, the medium was exchanged to Live Cell Imaging Solution (Molecular Probes Life Technologies) supplemented as described above and containing various concentrations of AG1 or gatastatin. Interphase cells were incubated with drugs for 15 min and mitotic cells were treated as described in Fig. 4c. Then, EB3 tracks were observed under a PerkinElmer UltraVIEW ERS Spinning Disk microscope (Software: UltraVIEW ERS Imaging Suite) equipped with a Plan-APOCHROMAT × 100/1.4 Oil DIC objective, a Confocal Scanner Unit (Yokogawa CSU 22), a Hamamatsu EM CCD camera (C9100-50) and a 488-nm Argon laser at 37 °C, and time-lapse sequences were performed for 60 s with a 400-ms interval. Automatic analysis of EB3-EGFP signal tracks was performed with ImageJ (http://imagej.nih.gov/ij/) and Matlab (Mathworks) as described.

Test [2] concerns HeLa cells expressing EB3-EGFP (mitotic spindle). As to the kind of experiment: EB3-EGFP signal tracking, mitotic (MG132 metaphase) cells. To be noted: 30 μM. It counts as cell-based, human. On the procedure: Figure 4 Impact of gatastatin on mitotic spindle dynamics. (a,b) γ-Tubulin function is important for normal bipolar spindle formation. (a) Scheme of the experiment in b. HeLa cells were arrested at prometaphase by treatment with 10 μM of STLC for 15 h before STLC was washed out. Progression through mitotic phases was then monitored either in the presence or absence of 30 μM of gatastatin for 2 h. (b) The mitotic stages of 20 cells per experiment from the scheme in a were analysed in three independent experiments. Error bars represent s.d. (c–e) γ-Tubulin function is important for normal bipolar spindle maintenance. (c) Scheme of the experiment in d,e. After STLC washout, HeLa cells were arrested at metaphase with bipolar spindles by treatment with 5 μM of MG132 for 2 h. 30 μM Gatastatin was added to cells and incubated for 2 h in the presence of MG132. (d) The spindle length (distance between centrosomes) of cells in scheme c was measured as described in Fig. 3g. Spindles of 20 cells per experiment were analysed. Three independent experiments were performed and one representative experiment is shown. Error bars represent s.d. Two-tailed, unpaired Student's t-test was used to obtain P value. (e) The effect of gatastatin on spindle MT dynamics was analysed using HeLa cells expressing EB3-EGFP. EB3 signals of spindle in c were monitored. […] Scale bar, 5 μm.
as §1

Another test concerns HeLa cells. As to the kind of experiment: Bipolar spindle establishment after STLC washout. To be noted: 30 μM, 2 h after STLC washout. It counts as cell-based, human. The procedure: To analyse bipolar spindle establishment from monopolar spindles, HeLa cells were arrested at prometaphase with 10 μM of STLC for 15 h. STLC was removed by washing cells with the medium three times. After treatment with 1% DMSO or 30 μM of gatastatin for 2 h, cells were immediately fixed with cold MeOH (−20 °C).
Immunostaining was performed as described above using anti-α-tubulin (1:250 dilution, Santa Cruz, Cat# sc-32293) and anti-pericentrin (1:250 dilution, Abcam, Cat# ab4448) antibodies. Spindle structure was observed under a Leica LAS AF 6000 fluorescence microscope (Leica Microsystems). The measurement of spindle length was performed as described above.

Where [3] appears, read: 2 h with MG132, mitotic HeLa EB3-EGFP, mean±s.d.

T1 sequence (P23258 whole entry): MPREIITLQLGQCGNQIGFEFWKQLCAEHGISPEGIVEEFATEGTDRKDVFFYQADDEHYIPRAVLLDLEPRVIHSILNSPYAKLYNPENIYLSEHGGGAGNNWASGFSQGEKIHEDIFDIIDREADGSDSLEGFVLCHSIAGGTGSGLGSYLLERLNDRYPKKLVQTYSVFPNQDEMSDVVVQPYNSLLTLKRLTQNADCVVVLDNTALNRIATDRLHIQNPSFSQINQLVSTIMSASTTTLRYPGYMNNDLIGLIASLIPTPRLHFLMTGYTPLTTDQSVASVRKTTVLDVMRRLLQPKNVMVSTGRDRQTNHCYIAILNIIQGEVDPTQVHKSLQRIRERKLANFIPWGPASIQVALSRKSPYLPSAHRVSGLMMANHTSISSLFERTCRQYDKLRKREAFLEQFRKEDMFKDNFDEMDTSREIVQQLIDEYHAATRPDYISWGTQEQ

In the case of `COc1cc2c(=O)c(-c3cc(OC)c4c(c3OC)OCO4)coc2cc1OCc1ccccc1` [Gatastatin, O^7-demethylbenzyl AG1], the “GTP binding (control %)” value at human γ-tubulin is on record as 6.7±3.7%. Also, the Track length amounted to 1.03±0.16 μm in test [1] (3 μM), 0.84±0.10 μm in test [1] (10 μM), 0.71±0.08 μm in test [1] (30 μM) and 0.53±0.09 μm in test [2] (setting [3]). The Track lifetime turned out to be 3.45 ± 0.71 s in test [1] (3 μM), 3.67 ± 0.62 s in test [1] (10 μM), 3.84 ± 0.50 s in test [1] (30 μM) and 1.76 ± 0.66 s in test [2] (setting [3]). In addition, the Velocity in test [1] (3 μM) is given as 12.49±1.67 μm min^−1; in test [1] (10 μM), 10.03±0.99 μm min^−1; in test [1] (30 μM) it was 8.43±0.81 μm min^−1; in test [2] (setting [3]), 11.21±1.68 μm min^−1. Moreover, the Track numbers in test [1] (3 μM) is listed as 94±27; in test [1] (10 μM), 83±30; in test [1] (30 μM), 89±32; in test [2] (2 h with MG132, mitotic, from a 25-μm^2 area in the spindle) it was 37.27±8.12. The “Reduction of the number of growing MTs” value in test [2] (preformed metaphase spindle (MG132), compared with control) is listed as 17%. Moreover, the “Cells unable to assemble a metaphase-like spindle on STLC washout” value in the test on HeLa cells is recorded as 87%.
